These results are taken from PubChem BioAssay AID179 (DTP/NCI, 2004).

Activity calls are given as the source filed them.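 Rule for the calls: active = compounds giving half or more protection of infected cells from virus-caused growth loss, again on retest; inactive = the rest.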

The assay has as its system CEM cells HIV-1 protection, formazan growth assay. As to the kind of experiment: NCI AIDS Antiviral Assay. The settings on record: for IC50: measured here: growth of uninfected CEM cells. In a few lines:
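Steps: treat uninfected and HIV-1-infected human CEM cells at five drug levels; quantify growth by soluble formazan; retest any compound reaching 50% protection; classify actives from the retest.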

What is called EC50 is the midpoint of the concentration-response curve. In general, IC50 refers to the midpoint of a concentration-inhibition curve. Turning to `Nc1c(S(=O)(=O)O)cc2cc(S(=O)(=O)O)ccc2c1N=Nc1ccc(CCc2ccc(N=Nc3c(N)c(S(=O)(=O)O)cc4cc(S(=O)(=O)O)ccc34)cc2S(=O)(=O)O)c(S(=O)(=O)O)c1`, the concentration giving a half-maximal response (EC50) was 7.59 µM and the IC50 is 60.3 µM.

With `O=C(Nc1ccc(Cl)cc1)c1cc(S(=O)(=O)N2CCNNC2=O)c(S)cc1Cl`, the EC50 is 9.77 µM and the IC50 was found to be 129 µM.

`CC(=Nc1ccncc1)C(C)=Nc1ccncc1`: the EC50 was 20.9 µM and the IC50 was found to be 36.3 µM.

For `CC(=O)CC1(O)C(=O)Nc2ccccc21` (centres undefined), the EC50 is greater than 200 µM and the IC50 is greater than 200 µM.

Turning to `Nc1nc2c(ncn2CC2OC(CO)C(CO)O2)c(=O)[nH]1` (centres undefined), the EC50 is greater than 115 µM and the concentration for half-maximal inhibition (IC50) is greater than 115 µM.

With `NNc1n[nH]c(=S)n1N`, the EC50 was greater than 200 µM and the IC50 is greater than 200 µM.

As to `COc1ccc(C(=O)Nc2cc(Cc3cc(NC(=O)c4ccc(OC)c(C(=O)O)c4)c(OC)c(C(=O)O)c3)cc(C(=O)O)c2OC)cc1C(=O)O`, the EC50 was greater than 50.1 µM and the half-inhibitory concentration (IC50) is greater than 50.1 µM.

Take `O=C1c2c(O)ccc(O)c2C(=O)c2c(NCCNC(=O)C(O)C(O)C(O)C(O)CO)ccc(NCCNC(=O)C(O)C(O)C(O)C(O)CO)c21` (centres undefined): the EC50 is greater than 100 µM and the IC50 was 0.0316 µM.

For the molecule `CC(=O)O[C@H]1CC[C@@]2(C)C(=C[C@H](c3ccc(O)cc3)[C@H]3[C@@H]4CC[C@H](OC(C)=O)[C@@]4(C)CC[C@@H]32)C1`, the EC50 was greater than 200 µM and the half-maximal inhibitory concentration (IC50) came out at 22.9 µM.

For the molecule `COc1cc2c(cc1OC)-c1cc3ccccc3c(=O)n1CCC2`, the EC50 was greater than 20 µM and the IC50 amounted to 2.82 µM.

`COc1ccc(-c2c(C#N)c(O)n(NS(=O)(=O)c3ccc(C)cc3)c(=O)c2C#N)cc1`: the EC50 is greater than 200 µM and the IC50 came to 56.2 µM.

For `Cc1nc2c(O)ccc(O)c2nc1C`, the EC50 is greater than 200 µM and the IC50 was 17.8 µM.

As to `CCSC(CCC(NC(C)=O)(C(=O)O)C(=O)O)SCC`, the EC50 is greater than 200 µM and the IC50 was greater than 200 µM.

Consider `COc1cc(/C=C2/C(=O)N(C(=O)c3ccc(Cl)cc3)N=C2C)cc(OC)c1OC`, for which the EC50 is greater than 17.4 µM and the IC50 is greater than 17.4 µM.

Take `CC(=O)CC(C)=O.CC(=O)CC(C)=O.CC(=O)CC(C)=O.CC(=O)CC(C)=O.[Zr]`: the outcome was inactive.

Turning to `Cc1ccc(S(=O)(=O)NCCCSCCN)cc1`, the EC50 was greater than 631 µM and the IC50 came to 562 µM.

`CC1CC(=O)Nc2ccccc2N1C(=O)C1CC1` (centres undefined): the EC50 is greater than 200 µM and the concentration for half-maximal inhibition (IC50) is greater than 200 µM.

On to `CN1C(CC(O)(c2ccccc2)c2ccccc2)CCCC1CC(O)(c1ccccc1)c1ccccc1` (centres undefined), for which the EC50 was greater than 200 µM and the half-inhibitory concentration (IC50) was found to be 57.5 µM.

With `O=C(Nc1ccc(N=Nc2ccc(S(=O)(=O)O)cc2)cc1)c1ccc(N=Nc2ccc3c(S(=O)(=O)O)cccc3c2O)cc1`, the half-maximal effective concentration (EC50) is 30.9 µM and the 50% inhibitory concentration (IC50) came to 195 µM.

`CCCCCCCCCCCCCCCCCCN1CN(CO)C(=O)N(CO)C1`: the EC50 is greater than 200 µM and the IC50 worked out at 166 µM.

With `O=C(NN1C(=O)CSC1c1ccco1)c1ccncc1` (centres undefined), the EC50 is greater than 200 µM and the concentration for half-maximal inhibition (IC50) was greater than 200 µM.

Consider `COC(=O)C(C)(C)OCc1ccc(C2NC(=O)N(c3cccc(Cl)c3)C(=O)N2c2cccc(Cl)c2)cc1` (centres undefined), for which the EC50 is greater than 200 µM and the IC50 worked out at 24 µM.

`CC12c3c4cc(Br)cc3Oc3cc(Br)cc(c31)Oc1cc(Br)cc(c12)O4`: the EC50 is greater than 200 µM and the IC50 was found to be 33.1 µM.

In the case of `O=c1cn[nH]c2cc(Cl)ccc12`, the EC50 is greater than 117 µM and the half-inhibitory concentration (IC50) was greater than 117 µM.

On to `NC(=O)CCNC(=O)c1ccccc1SC(=O)CCCC[n+]1ccccc1`, for which the EC50 is 1.95 µM and the IC50 was determined as 174 µM.

Turning to `NC1=NC(=O)CS1`, the EC50 was greater than 2140 µM and the IC50 was greater than 2140 µM.

Consider `C=CC(=O)N1C/C(=C\c2ccc(OC)cc2)C(=O)/C(=C/c2ccc(OC)cc2)C1`, for which the EC50 was 0.2 µM and the concentration for half-maximal inhibition (IC50) is 2.4 µM.

On to `Cn1ccc2[nH]c(=O)[nH]c(=S)c21`, for which the EC50 is greater than 200 µM and the IC50 is greater than 200 µM.

For `O=c1/c(=C\c2ccccc2Cl)sc2n1CCN=2`, the result was inactive.

For `CCOC(=O)c1c(CN2CCNCC2)nc2ccc(Cl)cc2c1-c1ccccc1`, the EC50 is greater than 63.1 µM and the IC50 was found to be 33.9 µM.

Turning to `C=C(C)C1CC(=O)C(C)=C(O)C1` (centres undefined), the result was inactive.

Consider `Cc1cc(=O)c2c(O)cc(O)c(C3CCN(C)CC3O)c2o1` (centres undefined), for which the half-maximal effective concentration (EC50) is greater than 1020 µM and the IC50 is 17 µM.

As for `O=C1C2CCCCC2C(=O)N1n1c(-c2ccccc2)n[nH]c1=O` (centres undefined), the EC50 was greater than 200 µM and the half-maximal inhibitory concentration (IC50) was greater than 200 µM.

Take `COc1cc2c(c(OC)c1OC)-c1ccc(=O)c(OC)cc1C(NC(C)=O)CC2` (centres undefined): the outcome was inactive.

For `CCN(CC)C(=S)N=Nc1c(O)[nH]c2ccccc12`, the EC50 was greater than 200 µM and the IC50 was 1.1 µM.

For `CCOC(=O)CN1C(=O)c2c(c(C)n(-c3ccccc3)c2C)C1=O`, the EC50 is greater than 200 µM and the half-maximal inhibitory concentration (IC50) was greater than 200 µM.

For `N#CS/C(Cl)=C(/C(Cl)=C(Cl)Cl)[N+](=O)[O-]`, the result was inactive.

Take `COc1ccc(CCN(C)CCC[C@](C#N)(c2ccc(OC)c(OC)c2)C(C)C)cc1OC`: the EC50 was greater than 200 µM and the IC50 stood at 38.9 µM.

On to `CCOC(=O)C(O)(NC(=O)c1ccccc1F)C(F)(F)F` (centres undefined), for which the result was inactive.

As to `COC(=O)NCC(OC(=O)c1cc2c(cc1I)OCO2)C1=CCCCC1` (centres undefined), the EC50 is greater than 28.8 µM and the half-inhibitory concentration (IC50) is greater than 28.8 µM.

Take `COC(=O)/C(=N\NC(=S)NN)C(C(=O)OC)C(=O)C(=O)Nc1cccc(C(F)(F)F)c1` (centres undefined): the EC50 is greater than 537 µM and the IC50 turned out to be 240 µM.

As to `COC(=O)CC1NC(=O)[C@]1(C)[C@H](C)O` (some centres undefined), the EC50 was greater than 1230 µM and the half-maximal inhibitory concentration (IC50) was greater than 1230 µM.

Take `S=C1NC2=C(CSC/C2=C\c2ccccc2)C(c2ccccc2)N1` (centres undefined): the EC50 is greater than 200 µM and the IC50 worked out at 37.2 µM.

Take `CC(C)c1ccc(/C(O)=C/C(=O)C(=O)/C=C(/O)c2ccc(C(C)C)cc2)cc1`: the outcome was inactive.

For the molecule `Cc1noc(NS(=O)(=O)c2ccc(NC(=O)c3ccc4nc5ccccc5c(Nc5ccc(S(=O)(=O)Nc6onc(C)c6C)cc5)c4c3)cc2)c1C`, the EC50 was 63.1 µM and the IC50 was found to be 110 µM.

Consider `Cc1cc(O)ccc1N=O`, for which the EC50 is greater than 200 µM and the IC50 was 3.39 µM.

On to `Cc1cc2c(c(=O)[nH]1)C(=O)NC2=O`, for which the EC50 is greater than 813 µM and the IC50 turned out to be 468 µM.

Take `Cc1cc2c(C(C)C)c(O)c(O)c(C=O)c2c(O)c1-c1c(C)cc2c(C(C)C)c(O)c(O)c(C=Nc3ccccc3SSc3ccccc3N)c2c1O`: the EC50 is greater than 200 µM and the half-inhibitory concentration (IC50) was determined as 24.5 µM.

`O=C(O)C(CS)NCc1c2ccccc2[n+]([O-])c2ccccc12` (centres undefined): the result was inactive.

Take `O=C(CC1C(=O)Nc2ccccc2S1(=O)=O)Nc1ccc(Cl)cc1` (centres undefined): the EC50 is greater than 5.5 µM and the IC50 was greater than 5.5 µM.

As to `Cc1cc(O)c2c(c1)C[C@@H](O)C1=C2C(=O)c2c(O)ccc(OC3CC(O)C(OC4CC(OC5CCC(OC6CC(O)C(OC7CC(OC8CCC(O)C(C)O8)C(O)C(C)O7)C(C)O6)C(C)O5)C(O)C(C)O4)C(C)O3)c2C1=O` (some centres undefined), the EC50 is greater than 43.7 µM and the IC50 was 0.2 µM.
